Assay results as given in the NIST ThermoML archive (doi:10.1021/je700033y).
Numbers after ± are expanded uncertainties.

Details: Liquid, High pressure cell

CO [methanol]
vapor or sublimation pressure (353.1 K): 181 ± 3 kPa
vapor or sublimation pressure (393.1 K): 635 ± 3 kPa
